Measurements published in ChEMBL document CHEMBL1201862, “PubChem BioAssay data set” (2004).
Calls of active or inactive are those of the source.

How the values were obtained:
[1] = target: T1, Short transient receptor potential channel 4 (Mus musculus, UniProt Q9QUQ5); test: mouse TRPC4 channel activators, dose response, cell-based, HEK293 TRPC4/mu-opioid, Fluo-4 calcium (AID 434937); type: functional
T1 sequence (Q9QUQ5 whole entry): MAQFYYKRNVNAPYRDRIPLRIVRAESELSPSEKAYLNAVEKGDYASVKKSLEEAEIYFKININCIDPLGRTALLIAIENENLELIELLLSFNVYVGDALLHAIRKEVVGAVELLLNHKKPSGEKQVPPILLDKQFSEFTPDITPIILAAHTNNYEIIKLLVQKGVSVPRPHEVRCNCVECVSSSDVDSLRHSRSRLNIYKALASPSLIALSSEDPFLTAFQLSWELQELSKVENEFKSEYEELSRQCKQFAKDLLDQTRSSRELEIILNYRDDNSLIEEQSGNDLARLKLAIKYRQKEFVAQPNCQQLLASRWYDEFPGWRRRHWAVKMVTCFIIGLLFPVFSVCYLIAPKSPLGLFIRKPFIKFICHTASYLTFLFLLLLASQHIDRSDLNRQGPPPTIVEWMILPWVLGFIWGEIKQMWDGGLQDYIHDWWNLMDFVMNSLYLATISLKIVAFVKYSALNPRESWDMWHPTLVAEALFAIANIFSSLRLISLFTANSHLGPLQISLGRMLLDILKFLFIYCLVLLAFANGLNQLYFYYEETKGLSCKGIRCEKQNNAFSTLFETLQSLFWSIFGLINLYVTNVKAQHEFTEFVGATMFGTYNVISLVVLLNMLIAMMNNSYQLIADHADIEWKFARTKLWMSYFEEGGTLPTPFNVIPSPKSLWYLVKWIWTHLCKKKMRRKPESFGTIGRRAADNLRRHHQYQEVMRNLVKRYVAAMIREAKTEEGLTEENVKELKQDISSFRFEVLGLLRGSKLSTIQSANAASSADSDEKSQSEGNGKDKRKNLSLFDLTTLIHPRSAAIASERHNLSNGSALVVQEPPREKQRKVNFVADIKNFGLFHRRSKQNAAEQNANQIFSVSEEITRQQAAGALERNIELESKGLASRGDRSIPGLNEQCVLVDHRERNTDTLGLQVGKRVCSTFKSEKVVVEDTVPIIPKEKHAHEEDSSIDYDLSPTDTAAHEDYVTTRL

[2] = target: Luciferin 4-monooxygenase (Photinus pyralis, UniProt P08659); test: firefly luciferase enzyme inhibitors, dose response, biochemical, luminescence (AID 1891)
[3] = Luminescence Cell-Based Dose Confirmation HTS to Identify Inhibitors of Platelet Dense Granule Release. [Related pubchem assays: 1663 (Primary HTS), 1678 (Summary of Project)]; type: functional
Cytochrome P450 2C9 = Cytochrome P450 2C9 (Homo sapiens, UniProt P11712)
H9c2 = test: cells; type: functional, cell-based; conditions: Rattus norvegicus, H9c2, Myocardium;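 further: confirmatory concentration-response retest of ultra-high-throughput screening hits for modulation of myocardial damage; cell death induced by hydrogen peroxide oxidative stress; compound pretreatment for 60 min then peroxide exposure for 2 h; potency is for protecting the cells against peroxide damage rather than for killing them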
[4] = growth suppression of PTEN-null colon cells, dose response, cell-based, HCT116 PTEN knockout (AID 1047); type: functional;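 further: HCT116 colon tumor cells with PTEN knocked out; cells exposed to compound for 60 hours before readout; potency for loss of cell viability measured by luminescence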
[5] = growth suppression of beta-catenin-knockout colon cells, dose response, cell-based, HCT116, human colon tumor (AID 1045); type: functional;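 further: HCT116 colon tumor cells with beta catenin knocked out; cells exposed to compound for 60 hours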
[6] = nonselective inhibitors of cellular cAMP signaling, dose response, counter-screen for MC4R biased antagonist project, cell-based, TR-FRET cAMP detection (AID 602305); type: functional;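 further: U2OS cells stimulated with forskolin near its EC80 as the cAMP inducer; potency is for inhibition of forskolin-stimulated cAMP signaling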
Melanocortin receptor 4 = Melanocortin receptor 4 (Homo sapiens, UniProt P32245); test: MC4R antagonist potency on cAMP, dose response, cell-based, TR-FRET, biased antagonists (AID 602298); type: functional;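 further: antagonist potency against agonist-stimulated cAMP production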
[7] = intracellular Trypanosoma cruzi inhibitors in host cells – cell-based, plate reader, cherry-pick samples, set 3, dose response (AID 651818); type: functional;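 further: compounds incubated with infected cells for about four days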
Vero = test: cells; type: functional; conditions: Chlorocebus sabaeus
[8] = target: T1, Short transient receptor potential channel 4; test: mouse TRPC4 channel inhibitors, dose response, cell-based, HEK293 TRPC4/mu-opioid, Fluo-4 calcium (AID 434942); type: functional;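 further: potency of inhibitors blocking the TRPC4 calcium response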

Chain of Cytochrome P450 2C9 (P11712 whole entry): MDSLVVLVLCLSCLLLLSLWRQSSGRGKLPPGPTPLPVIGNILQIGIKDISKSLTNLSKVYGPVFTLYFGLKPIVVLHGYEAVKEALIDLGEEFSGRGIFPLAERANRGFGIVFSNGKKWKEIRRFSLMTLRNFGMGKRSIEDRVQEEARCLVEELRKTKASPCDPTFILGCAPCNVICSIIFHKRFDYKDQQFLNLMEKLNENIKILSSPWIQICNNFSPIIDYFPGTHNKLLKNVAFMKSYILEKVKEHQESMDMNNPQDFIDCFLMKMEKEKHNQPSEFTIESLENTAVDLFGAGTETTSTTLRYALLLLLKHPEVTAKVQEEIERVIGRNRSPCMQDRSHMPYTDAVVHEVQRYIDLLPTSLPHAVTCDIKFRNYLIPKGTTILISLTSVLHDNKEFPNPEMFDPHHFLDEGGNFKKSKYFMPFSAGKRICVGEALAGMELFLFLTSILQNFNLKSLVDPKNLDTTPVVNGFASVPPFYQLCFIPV
Chain of Luciferin 4-monooxygenase (P08659 whole entry): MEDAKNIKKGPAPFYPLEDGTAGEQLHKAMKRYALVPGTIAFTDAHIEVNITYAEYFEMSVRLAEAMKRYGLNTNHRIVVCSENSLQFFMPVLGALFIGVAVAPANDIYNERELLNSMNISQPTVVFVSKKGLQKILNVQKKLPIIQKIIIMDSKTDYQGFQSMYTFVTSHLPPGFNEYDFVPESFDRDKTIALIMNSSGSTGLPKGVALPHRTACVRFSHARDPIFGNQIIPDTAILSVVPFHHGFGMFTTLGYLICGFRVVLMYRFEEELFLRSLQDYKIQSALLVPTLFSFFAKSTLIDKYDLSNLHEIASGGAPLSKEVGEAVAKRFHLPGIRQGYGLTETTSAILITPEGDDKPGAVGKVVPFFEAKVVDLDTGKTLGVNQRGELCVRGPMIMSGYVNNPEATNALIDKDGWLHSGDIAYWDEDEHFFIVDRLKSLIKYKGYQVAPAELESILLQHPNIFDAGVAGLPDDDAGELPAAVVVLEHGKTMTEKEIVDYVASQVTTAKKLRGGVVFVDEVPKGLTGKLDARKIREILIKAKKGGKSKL
Chain of Melanocortin receptor 4 (P32245 whole entry): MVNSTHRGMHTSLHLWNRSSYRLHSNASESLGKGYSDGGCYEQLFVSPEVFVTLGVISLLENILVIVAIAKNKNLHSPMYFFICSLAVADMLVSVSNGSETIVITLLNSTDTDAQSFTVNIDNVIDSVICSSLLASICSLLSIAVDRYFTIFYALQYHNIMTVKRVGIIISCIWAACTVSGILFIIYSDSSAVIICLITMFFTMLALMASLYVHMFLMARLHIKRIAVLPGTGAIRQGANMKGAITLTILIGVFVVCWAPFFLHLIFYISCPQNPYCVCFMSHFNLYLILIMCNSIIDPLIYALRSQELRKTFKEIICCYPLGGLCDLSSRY

Cc1sc2ncnc(NCC(c3ccco3)N(C)C)c2c1C (stereo not drawn)
EC50 [1]: 0.841 µM (active)

CC(=O)c1c(C)nn(CC(=O)NC2CCCN(Cc3ccc(CC(C)C)cc3)C2)c1C (stereo not drawn)
EC50 [2]: > 112 µM (not active)
EC50 [3]: > 112 µM (not active)
EC50 [1]: 1.19 µM (active)

FC(F)(F)c1ccccc1-c1nccc(N2CCNCC2)n1
AC50 (Cytochrome P450 2C9): inconclusive

COc1cc(OC)c2ccc(=O)oc2c1C(CC(=O)N1CCN(c2ccccc2)CC1)c1ccc2c(c1)OCO2 (stereo not drawn)
IC50 (H9c2): > 79 µM (inactive)

CCn1c(-c2ccccc2Cl)nn(CC(=O)Nc2ccccc2OC)c1=S
AC50 (Cytochrome P450 2C9): inconclusive

Oc1ccc(/N=C/C=C/c2ccc(Br)cc2)cc1-c1nc2ccccc2s1
EC50 [4]: 28.8 µM (active)
EC50 [5]: 22.4 µM (active)

COC(=O)c1c(NC(=O)COC(=O)c2ccc(Cl)cc2[N+](=O)[O-])sc2c1CCCCC2
IC50 [6]: > 64.6 µM (inactive)
IC50 (Melanocortin receptor 4): > 64.6 µM (inactive)

O=C(NCC(=O)N(Cc1ccccc1)C(C(=O)NC1CCCCC1)c1ccco1)c1ccco1 (stereo not drawn)
IC50 (H9c2): 42.2 µM (inactive)

Cc1ccc(S(=O)(=O)Nc2cccc3c2O[C@@H](CN(C)Cc2ccc(-c4ccccc4)cc2)[C@@H](C)CN([C@@H](C)CO)C3=O)cc1
AC50 [7]: 3.36 µM (active)

NC(=O)c1cccc(Nc2nc(C(N)CCc3ccccc3)cs2)n1 (stereo not drawn)
IC50 (H9c2): 18.3 µM (active)

COc1ccc(S(=O)(=O)Nc2ccc3c(c2)CC(=O)N([C@@H](C)CO)C[C@@H](C)[C@@H](CN(C)Cc2ccc(C(=O)Nc4ccccc4N)cc2)O3)cc1
AC50 [7]: 1.62 µM (active)

COc1ccc(C2=NOC(COc3ccc4c(C)cc(=O)oc4c3)C2)c(OC)c1 (stereo not drawn)
CC50 (Vero): 7.23 µM (active)

COc1ccc(C)cc1N(C(=O)c1snc(C(N)=O)c1N)C(C(=O)NC1CCCCC1)c1ccc(C)o1 (stereo not drawn)
EC50 [8]: 0.211 µM (active)

COc1cc(C(=O)NC(=S)NNC(=O)c2ccc3c(c2)OCO3)cc(OC)c1OC
CC50 (Vero): 20.2 µM (active)
